From patent US5281580A, “Calcitonin-containing emulsion for nasal administration” (Toyo Jozo Company, Ltd., priority 1990, dated 1994)
Blank lines part the entries; values can stand above or below the compound they belong to.

Tests used:
Format in all cases: physicochemical
[1] = Stabilities of emulsions relating to added concentration of the azacycloalkane derivative (Example 2); conditions: for Observation after 3 days standing / Observation after 7 days standing: room temperature
Protocol: Each 5 ml of a 1% (W/V) solution preliminarily prepared by dissolving dispotassium glycyrrhizate in distilled water was poured in each of 8 10-ml-test tubes, and thereto was added 1[2-(decylthio)ethyl] azacyclopentan-2-one chosen from the azacycloalkane derivatives so as to make a concentration ranging from 0 to 10%. Then, the mixture was agitated for 1 minute using Biomixer (NIHON SEIKI SEISAKUSHO) (15,000 rpm), to prepare each emulsion. The state of dispersion just after the preparation,or after 3 days or 7 days standing at room temperature was observed.

[2] = Emulsifiability and stability of emulsions: state of dispersion observed (Example 1); conditions: for Just after preparation (state of dispersion): 0.1 g azacycloalkane derivative + 5.0 ml; for After 3 days standing (state of dispersion): room temperature
Protocol: Using 1-[2-(decylthio)ethyl]azacyclopentan-2-one chosen from the azacycloalkane derivatives, and three emulsifying agents as follows, emulsifiabilities and stabilities of the emulsions were examined:
(§1) […] The mixture was agitated under 15,000 rpm for 1 minute by Biomixer (NIHON SEIKI SEISAKUSHO) to prepare each emulsion. The state of dispersion just after the preparation and after 3 days standing at room temperature was observed. The turbidity just after the preparation was measured by extinction at 650 nm, and used as the index of emulsifiability.

[3] = Turbidity just after preparation by extinction, index of emulsifiability (Example 1)
Protocol: as §1

[4] = concentration 1.0% in 1% (W/V) dipotassium glycyrrhizate
[5] = concentration 2.0% in 1% (W/V) dipotassium glycyrrhizate

Observation just after preparation [1, 4]: White clear
Observation after 3 days standing [1, 4]: White clear
Observation after 7 days standing [1, 4]: White clear
Observation just after preparation [1, 5]: White clear
Observation after 3 days standing [1, 5]: White clear
Observation after 7 days standing [1, 5]: White clear
SMILES: CCCCCCCCCCSCCN1CCCC1=O [1-[2-(decylthio)ethyl]azacyclopentan-2-one]
emulsification and stability (in words) ([1]; concentration 0.01% to 10%, using 1% dipotassium glycyrrhizate): exhibited good emulsification and gave a stable emulsion

Just after preparation (state of dispersion) ([2]; emulsifying agent 0.5%): White clear
After 3 days standing (state of dispersion) ([2]; emulsifying agent 0.5%): White clear
Just after preparation (state of dispersion) ([2]; emulsifying agent 1.0%): White clear
After 3 days standing (state of dispersion) ([2]; emulsifying agent 1.0%): White clear
Just after preparation (state of dispersion) ([2]; emulsifying agent 2.0%): White clear
After 3 days standing (state of dispersion) ([2]; emulsifying agent 2.0%): White clear
Just after preparation (state of dispersion) ([2]; emulsifying agent 3.0%): White clear
After 3 days standing (state of dispersion) ([2]; emulsifying agent 3.0%): White clear
emulsification (in words) ([2]; emulsifying agent at 0.1-5%): good emulsification
dissolution (in words) ([2]; emulsifying agent at 4-5%): full dissolution
Turbidity (650 nm) ([3]; emulsifying agent 0.1%): 1.284
Turbidity (650 nm) ([3]; emulsifying agent 0.5%): 0.459
Turbidity (650 nm) ([3]; emulsifying agent 1.0%): 0.437
Turbidity (650 nm) ([3]; emulsifying agent 2.0%): 0.405
Turbidity (650 nm) ([3]; emulsifying agent 3.0%): 0.346
Turbidity (650 nm) ([3]; emulsifying agent 4.0%): 0.006
Turbidity (650 nm) ([3]; emulsifying agent 5.0%): 0.006
SMILES: CC1(C)[C@@H](O[C@H]2O[C@H](C(=O)[O-])[C@@H](O)[C@H](O)[C@H]2O[C@@H]2O[C@H](C(=O)[O-])[C@@H](O)[C@H](O)[C@H]2O)CC[C@]2(C)[C@H]3C(=O)C=C4[C@@H]5C[C@@](C)(C(=O)O)CC[C@]5(C)CC[C@@]4(C)[C@]3(C)CC[C@@H]12.[K+].[K+] [dipotassium glycyrrhizate]
